Measured values: US20150191446A1, “SELENO-COMPOUNDS AND THERAPEUTIC USES THEREOF” (THE HEART RESEARCH INSTITUTE LTD, priority 2010, published 2015)

What was measured:
[1] = system: BSA; assay: 3-chlorotyrosine formation by HOCl in BSA (LCMS); assay type: biochemical, bovine; conditions: FIG. 5A
Method: (§1) Varying concentrations of Se-sugars (1.0 mM-0.05 mM) were added to solutions containing 0.1 mg·mL^−1 of protein (BSA or Plasma).
(§2) 150 μL of each sample (Se1HSA1—Control) were added to 50 μL of 3 mM HOCl. Samples, with a final volume of 200 μL, were placed in a glass vial (8×40 mm, 1 mL, No. 98212, Alltech) labeled by etching with a diamond tipped pen or engraver. Proteins (0.1 mg in 200 μL) were delipidated and precipitated by the addition of 25 μL 0.3% (w/v) deoxycholic acid and 50 μL of 50% (w/v) TCA, with incubation on ice for 5 min. The glass vials containing samples were placed in 1.5 mL centrifuge tubes for 2 minutes at 9000 rpm at 5° C. (Eppendorf 5415R centrifuge) to pellet protein. Protein pellets were washed once with 5% (w/v) TCA, and twice with ice cold acetone (stored in […]) with 2 min, 9000 rpm, spins between washes in each case to settle pellets. The samples were then transferred to PicoTag hydrolysis vessels before the addition of 150 μL of 6 M HCl and 50 μL of thioglycolic acid into the PicoTag vessel and placed under vacuum in the oven at 110° C. for 16-18 hours. The PicoTag vessels were removed from oven and allowed to cool before releasing vacuum. […]
(§3) L-Tyrosine, 3-chlorotyrosine and di-tyrosine were analysed by LC-MS in the positive ion mode with a Finigan LCQ Deca XP ion-trap instrument coupled to a Finigan surveyor HPLC system. […]

[2] = system: human plasma; assay: 3-chlorotyrosine formation by HOCl in human plasma (LCMS); assay type: biochemical; conditions: FIG. 5B
Method: as §1, §2, §3

[3] = ThioGlo assay, recycling of selenoxides by thiols: cysteine; conditions: Cys samples
Method: (§4) The purpose of these experiments was to determine whether thiols could reduce the selenoxides formed on oxidation of the seleno compounds. The ThioGlo assay was used to monitor the loss of thiol groups upon addition of selenoxides as this agent produces a fluorescent product in the presence of reduced thiols.
(§5) The ThioGlo reagent was prepared by diluting 30 μL of a stock solution (5 mg in 5.070 mL acetonitrile) in 2970 μL of 0.1 M pH 7.4 phosphate buffer. Preparation of the developing reagent was performed immediately prior to addition to standards or samples. Standard curves were prepared by addition of varying volumes, between 0 and 50 μL, of 10 μM GSH solution to wells in a 96-well plate. The volume in each well was made up to 50 μL with 0.1 M pH 7.4 phosphate buffer. 50 μL of ThioGlo•reagent was added to each standard, and incubated in the dark for 5 minutes. The fluorescence was measured using a PerSeptive Biosystems CytoFluor II fluorescence multi-well plate reader with λex=360 nm λem=530 nm. Standards using 10 μM Cys and 2 mg/mL BSA were produced in the same method.
(§6) Solutions of 8 μM SeMetO were produced by mixing 20 μM SeMet and 16 μM HOCl together, and incubating for 30 minutes. […] The fluorescence was measured using the PerSeptive Biosystems CytoFluor II fluorescence multi-well plate reader with λex=360 nm λem=530 nm. […]

[4] = target: bovine serum albumin (Bos taurus, UniProt P02769); assay: ThioGlo assay, recycling of selenoxides by thiols: bovine serum albumin; conditions: thiol group on bovine serum albumin
Method: as §4, §5, §6

[5] = ThioGlo assay, recycling of selenoxides by thiols: glutathione; conditions: GSH samples
Method: as §4, §5, §6

[6] = system: wounds in wildtype C57/BL6 mice; assay: Circular incision wound model, topical treatment, wildtype mice; assay type: in vivo, mouse; conditions: for pus formation in wound / wound healing (appearance): topical; for wound healing (appearance): FIG. 25, 26
Method: In the experimental testing according to the present invention, pairs of circular incision wounds on the backs of wildtype C57/BL6 and db−/db− mice (n=12 each) were treated daily with a seleno-compound according to the current invention or vehicle, topically for 10 days. Wound closure, vascular perfusion and tissue histology were assessed.

Chain of bovine serum albumin (P02769 25-607): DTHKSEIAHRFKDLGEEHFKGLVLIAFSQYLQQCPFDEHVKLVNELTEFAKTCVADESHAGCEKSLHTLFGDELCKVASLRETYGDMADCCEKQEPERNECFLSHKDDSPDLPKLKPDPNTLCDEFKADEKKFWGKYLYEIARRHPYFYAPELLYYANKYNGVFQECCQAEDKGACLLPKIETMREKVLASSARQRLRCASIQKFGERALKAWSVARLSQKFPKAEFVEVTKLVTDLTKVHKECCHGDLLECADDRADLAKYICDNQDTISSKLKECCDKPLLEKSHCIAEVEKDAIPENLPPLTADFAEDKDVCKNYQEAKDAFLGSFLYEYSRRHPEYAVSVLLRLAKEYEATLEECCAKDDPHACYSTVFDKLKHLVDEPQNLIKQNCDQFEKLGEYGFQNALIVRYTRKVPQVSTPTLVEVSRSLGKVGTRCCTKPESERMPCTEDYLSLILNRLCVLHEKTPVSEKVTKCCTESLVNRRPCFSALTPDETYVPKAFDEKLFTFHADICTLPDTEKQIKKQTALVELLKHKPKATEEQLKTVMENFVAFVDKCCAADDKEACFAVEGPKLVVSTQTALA

Compound	amount of thiols after selenoxide addition [3]	reduction of selenoxide by thiol group [4]	amount of thiols after selenoxide addition [5]	wound healing (appearance) ([6]; same dose)	further results
OCC1[Se]CC(O)C(O)[C@@H]1O (stereo partly drawn) [compound 4, 1,5-Anhydro-5-seleno-L-gulitol]	–	–	–	–	3-chloro-tyrosine formation by HOCl [1]: effectively preventing; 3-chloro-tyrosine formation by HOCl [2]: effectively preventing
C[Se](=O)CC[C@H](N)C(=O)O (stereo partly drawn) [SeMetO, selenomethionine oxide]	dose dependent decreases	less marked	dose dependent decreases	–	–
O[C@@H]1C[Se]C[C@H]1O (racemic) [DHSred, DL-trans-3,4,-Dihydroxy-L-selenolane]	–	–	–	inferior healing	inflammatory response during wound healing ([6]; FIG. 25): resulted in an inflammatory response; pus formation in wound ([6]; same dose, FIG. 25): development of pus; wound healing (appearance) ([6]; same dose, listed as DL-trans-3,4,-Dihydroxy-L-selenolane): reduced wound healing; pus formation in wound ([6]; same dose, FIG. 25, listed as DL-trans-3,4,-Dihydroxy-L-selenolane): observable pus formation; scar tissue formed during wound healing ([6]; wildtype mice, same dose, FIG. 26): pronounced scar tissue build up
O=[Se]1C[C@@H](O)[C@@H](O)[C@@H]1[C@H](O)CO (stereo partly drawn) [SeTalO]	dose dependent decreases	less marked	dose dependent decreases	–	–
OC[C@@H](O)[C@@H]1[Se]C[C@@H](O)[C@H]1O [compound 38, 1,4.-Anhydro-4-seleno-D-talitol]	–	–	–	improved wound closure and healing	–
